# Test results published in patent US8383581B2, “Short-chain peptides as parathyroid hormone (PTH) receptor agonist” (Cadila Healthcare Limited, priority 2009, dated 2013).
# Where a SMILES comes first, the peptide text is derived from it. [ ]: non-standard residue; d: D form. ξ: configuration not given here. ξαMeBip(2'-Et,4'-OMe) = CCc1cc(OC)ccc1-c1ccc(CC(C)(N)C(=O)O)cc1; ξBip(2'-Et-4'-OMe) = CCc1cc(OC)ccc1-c1ccc(CC(N)C(=O)O)cc1; ξαMePhe(2,6-F2) = CC(N)(Cc1c(F)cccc1F)C(=O)O; ξαMe(hhPhe) = CC(N)(CCCc1ccccc1)C(=O)O; hArg = N=C(N)NCCCC[C@H](N)C(=O)O; Cit = NC(=O)NCCC[C@H](N)C(=O)O; ξhhPhe = NC(CCCc1ccccc1)C(=O)O; ξαMeNle = CCCCC(C)(N)C(=O)O; Nle = CCCC[C@H](N)C(=O)O; Orn = NCCC[C@H](N)C(=O)O; Ac5c = NC1(C(=O)O)CCCC1; Aib = CC(C)(N)C(=O)O
# Tested on: ovariectomised (OVX) rats
# Assay: In vivo anti-osteoporosis activity testing in OVX rat model (serum calcium, phosphate, bone parameters)
# Set-up: species or system Female Wistar Rats
# Settings: po
# Text: c) In Vivo Anti-Osteoporosis Activity Testing in OVX Rat Model: The ovariectomised (OVX) rats were used to study anti-osteoporosis activity of test compounds (short-chain peptides) in vivo. The OVX rats develop osteopenia due to ovarian hormone deficiency. Osteopenia can be detected as early as 14 days post OVX, increase for the next 100 days and then stabilised (Wronski T. J., et al., Calcif. Tissue Int., 43(3), 1988, 179-183). Detailed Study Protocol to Evaluate the Effects of Anabolic Therapy on Bone Markers and Histomorphometry in OVX Animals: 10 to 11 weeks old Female Wistar Rats (150-200 g) were used. The animals were kept in individually ventilated cages in a room with controlled temperature (23°±3° C.), lighting (12:12 h light-dark cycle) and relative humidity (55±10%). Animals had free access to standard rat chow and water. Protocol for use of animals for conducting this study has been reviewed and approved by Institutional Animal Ethics Committee (IAEC). The animals were marked with picric acid for identification and acclimatized to experimental room conditions for 2 days prior to initiation of the study. For the induction of osteoporosis, rats were bilaterally ovariectomised under anesthesia. For Ovariectomy, Incision was made on dorsa-lateral side near lumbar region of animal. After that, ovary was excised and the veins were tied with ligature before removing ovary to prevent blood loss. Then incision was sutured back with ligature. After Bilateral ovariectomy, animals were allowed to rest for 4 weeks. They were then divided into different groups (n=9) based on their body weight. The groups consisted of a no treatment control, PTH as standard and one or two groups of test compounds (short-chain peptides). The treatment was given for the duration of 6 weeks. At the last day of treatment animals were kept overnight in metabolic cages under fasting for the collection of Urine. Next day, blood was collected after 24 hours of last dosing and animals were sacrificed. Changes in biochemical parameters and bone turnover parameters (Increase in serum Calcium and decrease in Phosphate levels, Acid Phosphatase and TRAP) were evaluated in the urine and serum. After sacrificing, intact femur and tibial bones are removed and cleaned from adherent tissues, muscles and tendons; weighed and collected in formal saline (10% formaldehyde solution). Lumbar vertebra (L5) was excised, carefully cleaned and collected in formal saline. Femur, tibia and Lumbar vertebra-5 (L5) were later processed for histomorphometric evaluation (Zhang L., et al., Tohoku J Exp Med., 1998, 186(2), 131-41; Tanizawa T., et al., Toxicol Lett., 1998, 102, 399-403).
compound,measurement,setting,value
"CCCC[C@H](NC(=O)C(C)(Cc1c(F)cccc1F)NC(=O)[C@H](CCC(N)=O)NC(=O)[C@@H](NC(=O)[C@H](CCC(=O)O)NC(=O)C(C)(C)NC(=O)[C@@H](NC(=O)C(C)(C)N)C(C)C)[C@@H](C)CC)C(=O)N[C@@H](Cc1c[nH]cn1)C(=O)N[C@@H](CCC(N)=O)C(=O)N[C@@H](CCCCNC(=N)N)C(=O)N[C@@H](C)C(=O)NC(C)(C)C(=O)NC(Cc1ccc(-c2ccc(OC)cc2CC)cc1)C(=O)NC(CCCc1ccccc1)C(N)=O (stereo partly drawn) [Seq. ID. 814] (H-[Aib]V[Aib]EIQ[ξαMePhe(2,6-F2)][Nle]HQ[hArg]A[Aib][ξBip(2'-Et-4'-OMe)][ξhhPhe]-NH2)",% decrease in serum PO4 Levels (mg/dl) vs control,0.02 mg/kg,95%
same,% increase in serum Ca^2+ Levels (mg/dl) vs control,0.02 mg/kg,99%
"CCCC[C@H](NC(=O)C(C)(Cc1c(F)cccc1F)NC(=O)[C@H](CCC(N)=O)NC(=O)[C@@H](NC(=O)[C@H](CCC(=O)O)NC(=O)C(C)(C)NC(=O)[C@@H](NC(=O)C1(N)CCCC1)C(C)C)[C@@H](C)CC)C(=O)N[C@@H](Cc1c[nH]cn1)C(=O)N[C@@H](CCC(N)=O)C(=O)N[C@@H](CCCN)C(=O)N[C@@H](C)C(=O)NC(C)(Cc1c(F)cccc1F)C(=O)NC(Cc1ccc(-c2ccc(OC)cc2CC)cc1)C(=O)NC(CCCc1ccccc1)C(N)=O (stereo partly drawn) [Seq. ID. 833] (H-[Ac5c]V[Aib]EIQ[ξαMePhe(2,6-F2)][Nle]HQ[Orn]A[ξαMePhe(2,6-F2)][ξBip(2'-Et-4'-OMe)][ξhhPhe]-NH2)",% decrease in serum PO4 Levels (mg/dl) vs control,0.05 mg/kg,78%
same,% increase in serum Ca^2+ Levels (mg/dl) vs control,0.05 mg/kg,86%
"CCCC[C@H](NC(=O)C(C)(Cc1c(F)cccc1F)NC(=O)[C@H](CCC(N)=O)NC(=O)[C@@H](NC(=O)[C@H](CCC(=O)O)NC(=O)C(C)(C)NC(=O)[C@@H](NC(=O)C1(N)CCCC1)C(C)C)[C@@H](C)CC)C(=O)N[C@@H](Cc1c[nH]cn1)C(=O)N[C@@H](CCC(N)=O)C(=O)N[C@@H](CCCNC(N)=O)C(=O)N[C@@H](C)C(=O)NC(C)(C)C(=O)NC(Cc1ccc(-c2ccc(OC)cc2CC)cc1)C(=O)NC(CCCc1ccccc1)C(N)=O (stereo partly drawn) [Seq. ID. 847] (H-[Ac5c]V[Aib]EIQ[ξαMePhe(2,6-F2)][Nle]HQ[Cit]A[Aib][ξBip(2'-Et-4'-OMe)][ξhhPhe]-NH2)",% decrease in serum PO4 Levels (mg/dl) vs control,0.5 mg/kg,79%
same,% increase in serum Ca^2+ Levels (mg/dl) vs control,0.5 mg/kg,77%
CCCC[C@H](NC(=O)[C@H](CC(C)C)NC(=O)[C@H](CCC(N)=O)NC(=O)[C@@H](NC(=O)[C@H](CCC(=O)O)NC(=O)C(C)(C)NC(=O)[C@@H](NC(=O)C(C)(C)NC(=O)[C@@H](N)C(C)C)C(C)C)[C@@H](C)CC)C(=O)N[C@@H](Cc1c[nH]cn1)C(=O)N[C@@H](CCC(N)=O)C(=O)N[C@@H](CCCCNC(=N)N)C(=O)N[C@@H](C)C(=O)N[C@@H](CCCCN)C(=O)NC(Cc1ccc(-c2ccc(OC)cc2CC)cc1)C(=O)NC(C)(CCCc1ccccc1)C(N)=O (stereo partly drawn) [Seq. ID. 893] (H-V[Aib]V[Aib]EIQL[Nle]HQ[hArg]AK[ξBip(2'-Et-4'-OMe)][ξαMe(hhPhe)]-NH2),% decrease in serum PO4 Levels (mg/dl) vs control,0.3 mg/kg,89%
same,% increase in serum Ca^2+ Levels (mg/dl) vs control,0.3 mg/kg,108%
"CCc1cc(OC)ccc1-c1ccc(CC(C)(NC(=O)[C@H](CCCCNC(=N)N)NC(=O)[C@H](C)NC(=O)[C@H](CCCCNC(=N)N)NC(=O)[C@H](CCC(N)=O)NC(=O)[C@H](Cc2c[nH]cn2)NC(=O)[C@H](CCSC)NC(=O)[C@H](CC(C)C)NC(=O)[C@H](CCC(N)=O)NC(=O)[C@@H](NC(=O)[C@H](CCC(=O)O)NC(=O)C(C)(C)NC(=O)[C@@H](NC(=O)C(C)(C)NC(=O)[C@@H](N)C(C)C)C(C)C)[C@@H](C)CC)C(=O)NC(CCCc2ccccc2)C(N)=O)cc1 (stereo partly drawn) [Seq. ID. 902] (H-V[Aib]V[Aib]EIQLMHQ[hArg]A[hArg][ξαMeBip(2'-Et,4'-OMe)][ξhhPhe]-NH2)",% decrease in serum PO4 Levels (mg/dl) vs control,0.8 mg/kg,98%
same,% increase in serum Ca^2+ Levels (mg/dl) vs control,0.8 mg/kg,110%
"CCCCC(C)(NC(=O)[C@H](CC(C)C)NC(=O)[C@H](CCC(N)=O)NC(=O)[C@@H](NC(=O)[C@H](CCC(=O)O)NC(=O)C(C)(C)NC(=O)[C@@H](NC(=O)C(C)(C)N)C(C)C)[C@@H](C)CC)C(=O)N[C@@H](Cc1c[nH]cn1)C(=O)N[C@@H](CCC(N)=O)C(=O)N[C@@H](CCCCNC(=N)N)C(=O)N[C@@H](C)C(=O)N[C@@H](CCCCNC(=N)N)C(=O)NC(C)(Cc1ccc(-c2ccc(OC)cc2CC)cc1)C(=O)NC(CCCc1ccccc1)C(N)=O (stereo partly drawn) [Seq. ID. 911] (H-[Aib]V[Aib]EIQL[ξαMeNle]HQ[hArg]A[hArg][ξαMeBip(2'-Et,4'-OMe)][ξhhPhe]-NH2)",% decrease in serum PO4 Levels (mg/dl) vs control,10 mg/kg,97%
same,% increase in serum Ca^2+ Levels (mg/dl) vs control,10 mg/kg,121%
